According to US6335371B1, “Method for inducing cognition enhancement” (Orion Corporation, priority 2000, dated 2002):

Experiments:
[1] = Randomised placebo-controlled double-blind study, cognitive part of Hamilton Anxiety Scale (HAM-A; concentration and memory items); format: in vivo
Procedure: (§1) The cognition enhancement properties of deramciclane were studied in a randomised placebo-controlled double-blind study. The subjects were randomly assigned to four parallel groups to receive one tablet twice daily (b.i.d) of a placebo, 5 mg (=10 mg/day), 15 mg (=30 mg/day), or 30 mg (=60 mg/day) deramciclane. The study started with a one-week placebo run-in period, followed by an eight-week placebo-controlled active treatment and a two-week placebo washout period.
(§2) The efficacy of deramciclane on cognition enhancement was studied using the cognitive part of Hamilton Anxiety Scale (HAM-A) which consists of the concentration and memory items. Cognition enhancement was also assessed using Udvalg for Kliniske Undersogelser (UKU) scale.

[2] = Randomised placebo-controlled double-blind study, Udvalg for Kliniske Undersogelser (UKU) scale, concentration difficulties; format: in vivo; details: 5, 15, 30 mg b.i.d
Procedure: as §1, §2

## CN(C)CCO[C@]1(c2ccccc2)C[C@H]2CC[C@]1(C)C2(C)C [deramciclane, (1R,2S,4R)-(−)-2-phenyl 2-(dimethylaminoethoxy)-1,7,7-trimethyl-bicyclo[2.2.1]heptane]
[1]; After 8 weeks, 5 mg b.i.d
  HAM-A Intellectual, cognitive: subjects rated Mild, number (%): 20 (47%)
  HAM-A Intellectual, cognitive: subjects rated Moderate, number (%): 6 (14%)
  HAM-A Intellectual, cognitive: subjects rated Not Present, number (%): 15 (35%)
  HAM-A Intellectual, cognitive: subjects rated Severe, number (%): 2 (5%)
[1]; After 8 weeks, 15 mg b.i.d.
  HAM-A Intellectual, cognitive: subjects rated Mild, number (%): 19 (43%)
  HAM-A Intellectual, cognitive: subjects rated Moderate, number (%): 3 (7%)
  HAM-A Intellectual, cognitive: subjects rated Not Present, number (%): 21 (48%)
  HAM-A Intellectual, cognitive: subjects rated Severe, number (%): 1 (2%)
[1]; After 8 weeks, 30 mg b.i.d.
  HAM-A Intellectual, cognitive: subjects rated Mild, number (%): 14 (30%)
  HAM-A Intellectual, cognitive: subjects rated Moderate, number (%): 10 (22%)
  HAM-A Intellectual, cognitive: subjects rated Not Present, number (%): 22 (48%)
  HAM-A Intellectual, cognitive: subjects rated Severe, number (%): 0
[1]; Baseline, 5 mg b.i.d group
  HAM-A Intellectual, cognitive: subjects rated Mild, number (%): 17 (31%)
  HAM-A Intellectual, cognitive: subjects rated Moderate, number (%): 33 (61%)
  HAM-A Intellectual, cognitive: subjects rated Not Present, number (%): 3 (6%)
  HAM-A Intellectual, cognitive: subjects rated Severe, number (%): 1 (2%)
[1]; Baseline, 15 mg b.i.d. group
  HAM-A Intellectual, cognitive: subjects rated Mild, number (%): 12 (24%)
  HAM-A Intellectual, cognitive: subjects rated Moderate, number (%): 35 (69%)
  HAM-A Intellectual, cognitive: subjects rated Not Present, number (%): 3 (6%)
  HAM-A Intellectual, cognitive: subjects rated Severe, number (%): 1 (2%)
[1]; Baseline, 30 mg b.i.d. group
  HAM-A Intellectual, cognitive: subjects rated Mild, number (%): 15 (28%)
  HAM-A Intellectual, cognitive: subjects rated Moderate, number (%): 28 (53%)
  HAM-A Intellectual, cognitive: subjects rated Not Present, number (%): 3 (6%)
  HAM-A Intellectual, cognitive: subjects rated Severe, number (%): 7 (13%)
[1]; eight-week treatment, 5, 15 or 30 mg b.i.d
  Effect on cognition measured by the cognitive part of the HAM-A: improved the cognition
[2]
  Trend analysis (dose-response relationship), concentration difficulties, UKU-scale: statistically significant positive correlation
